The source of these data is ChEMBL document CHEMBL4402608 (J Med Chem, 2020).

The term inhibition denotes the drop in the measured response relative to a control, in per cent. For orientation: pKi means the Ki on a negative log10 scale, so that one unit is a factor of ten.

pKi: −log10 of the molar value.

One data set addresses 5HT1D receptor (Homo sapiens, UniProt P28221). The data set is described as follows: Displacement of [3H]5-CT from recombinant human 5HT1D receptor transiently expressed in HEKT cell membranes at 10 uM measured after 90 mins by microbeta scintillation counting method relative to control. The note with it: probe [3H]5-CT.
Data set [1] concerns the target Sodium-dependent noradrenaline transporter (Homo sapiens, UniProt P23975). The data set is described as follows: Displacement of [3H]-Nisoxetine from human NET receptor expressed in stable HEK cell membranes after 90 mins by microbeta scintillation counting method. (In general: Loss of bound radioactivity is the signal in a displacement assay; it reports binding, not function.)

Data set [2] has as its target 5-hydroxytryptamine receptor 7 (Homo sapiens, UniProt P34969). The data set is described as follows: Displacement of [3H]-LSD from recombinant human 5HT7A receptor stably expressed in HEK cell membranes measured after 90 mins by microbeta scintillation counting method.
The target of a further data set is dopamine D2 receptor (Homo sapiens, UniProt P14416). The experiment in a line: Displacement of [3H]-N-methylspiperone from recombinant human D2 receptor stably expressed in fibroblast cell membranes at 10 uM measured after 90 mins by microbeta scintillation counting method relative to control. The following applies: probe [3H]-N-methylspiperone.
Data set [3] concerns the target 5-hydroxytryptamine receptor 2A (Homo sapiens, UniProt P28223). The data set is described as follows: Displacement of [3H]-Ketanserin from 5HT2A receptor (unknown origin) measured after 90 mins by microbeta scintillation counting method.
Data set [4] has as its target 5-hydroxytryptamine receptor 2C (Homo sapiens, UniProt P28335). The experiment in a line: Displacement of [3H]-Mesulergine from recombinant human 5HT2C receptor expressed in HEK cell membranes measured after 90 mins by microbeta scintillation counting method.
Data set [5] has as its target 5-hydroxytryptamine receptor 2B (Homo sapiens, UniProt P41595). The data set is described as follows: Displacement of [3H]-LSD from recombinant human 5HT2B receptor stably expressed in HEK cell membranes measured after 90 mins by microbeta scintillation counting method.
The target of the next data set is muscarinic M4 receptor (Homo sapiens, UniProt P08173). The data set is described as follows: Displacement of [3H]-QNB/[3H]-NMS from human muscarinic M4 receptor expressed in stable CHO cell membranes at 10 uM after 90 mins by microbeta scintillation counting method relative to control. The note with it: probe [3H]-QNB/[3H]-NMS.
The target in data set [6] is T1, Alpha-1A adrenergic receptor (Homo sapiens, UniProt P35348).
T1 sequence (P35348 whole entry): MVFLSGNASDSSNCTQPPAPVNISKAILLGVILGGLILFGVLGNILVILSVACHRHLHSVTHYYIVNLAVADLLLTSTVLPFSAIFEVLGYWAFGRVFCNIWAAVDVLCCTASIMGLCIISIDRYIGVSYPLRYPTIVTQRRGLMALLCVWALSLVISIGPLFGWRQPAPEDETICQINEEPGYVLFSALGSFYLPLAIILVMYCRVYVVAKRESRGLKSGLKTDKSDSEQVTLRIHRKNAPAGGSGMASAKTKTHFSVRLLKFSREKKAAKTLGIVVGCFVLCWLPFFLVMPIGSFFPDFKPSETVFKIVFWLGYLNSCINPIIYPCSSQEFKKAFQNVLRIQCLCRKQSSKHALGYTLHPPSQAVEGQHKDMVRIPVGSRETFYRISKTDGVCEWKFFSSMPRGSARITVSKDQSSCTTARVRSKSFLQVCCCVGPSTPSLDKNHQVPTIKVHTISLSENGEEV
The data set is described as follows: Displacement of [3H]-prazosin from recombinant human alpha1A adrenergic receptor at 10 uM measured after 90 mins by microbeta scintillation counting method relative to control. The following applies: probe [3H]-prazosin.

The target of the next data set is dopamine D5 receptor (Homo sapiens, UniProt P21918). The experiment in a line: Displacement of [3H]-SCH23390 from recombinant human D5 receptor transiently expressed in HEKT cell membranes at 10 uM measured after 90 mins by microbeta scintillation counting method relative to control. The note with it: probe [3H]-SCH23390.
The target in another data set is 5HT1E receptor (Homo sapiens, UniProt P28566). The experiment in a line: Displacement of [3H]5-HT from recombinant human 5HT1E receptor stably expressed in HEK cell membranes at 10 uM measured after 90 mins by microbeta scintillation counting method relative to control. The following applies: probe [3H]5-HT.
In a further data set the target is Histamine H3 receptor (Homo sapiens, UniProt Q9Y5N1). The data set is described as follows: Displacement of [3H]-alpha-methylhistamine from recombinant human histamine H3 receptor expressed in HEK Flp-In cell membranes at 10 uM measured after 90 mins by microbeta scintillation counting method relative to control. The note with it: probe [3H]-alpha-methylhistamine.

In data set [7] the target is Muscarinic acetylcholine receptor M4 (Homo sapiens, UniProt P08173). The data set is described as follows: Displacement of [3H]-QNB/[3H]-NMS from human muscarinic M4 receptor expressed in stable CHO cell membranes after 90 mins by microbeta scintillation counting method.
Data set [8] has as its target Beta-1 adrenergic receptor (Homo sapiens, UniProt P08588). The experiment in a line: Displacement of [125I]-pindolol from recombinant human beta1 adrenergic receptor expressed in CHO Flp-In cell membranes at 10 uM measured after 90 mins by microbeta scintillation counting method relative to control. The note with it: probe [125I]-pindolol.
Data set [9] addresses Alpha-2B adrenergic receptor (Homo sapiens, UniProt P18089). The experiment in a line: Displacement of [3H]-rauwolscine from recombinant human alpha2B adrenergic receptor transiently expressed in HEKT cell membranes at 10 uM measured after 90 mins by microbeta scintillation counting method relative to control. The following applies: probe [3H]-rauwolscine.
The target of another data set is Histamine H4 receptor (Homo sapiens, UniProt Q9H3N8). The experiment in a line: Displacement of [3H]-Histamine from recombinant human histamine H4 receptor expressed in HEKT cell membranes at 10 uM measured after 90 mins by microbeta scintillation counting method relative to control. The following applies: probe [3H]-Histamine.
Data set [10] deals with T2, Alpha-1B adrenergic receptor (Homo sapiens, UniProt P35368).
T2 sequence (P35368 whole entry): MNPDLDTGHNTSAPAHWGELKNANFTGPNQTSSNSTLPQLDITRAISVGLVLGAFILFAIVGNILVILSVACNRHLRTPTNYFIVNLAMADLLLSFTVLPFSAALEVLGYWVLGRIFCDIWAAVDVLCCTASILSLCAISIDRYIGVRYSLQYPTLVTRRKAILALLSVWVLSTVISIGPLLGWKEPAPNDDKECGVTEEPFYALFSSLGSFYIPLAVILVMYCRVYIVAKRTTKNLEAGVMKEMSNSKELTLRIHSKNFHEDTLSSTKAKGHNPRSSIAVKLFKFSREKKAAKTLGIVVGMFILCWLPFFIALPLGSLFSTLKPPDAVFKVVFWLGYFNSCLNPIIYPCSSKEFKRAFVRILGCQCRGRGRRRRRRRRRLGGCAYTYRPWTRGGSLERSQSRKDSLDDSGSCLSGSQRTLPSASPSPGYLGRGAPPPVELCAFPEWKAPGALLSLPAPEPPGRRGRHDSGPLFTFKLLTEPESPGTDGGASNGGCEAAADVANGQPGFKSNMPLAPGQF
The data set is described as follows: Displacement of [3H]-prazosin from recombinant human alpha1B adrenergic receptor transiently expressed in HEKT cell membranes at 10 uM measured after 90 mins by microbeta scintillation counting method relative to control. The note with it: probe [3H]-prazosin.

The target of data set [11] is Sigma non-opioid intracellular receptor 1 (Homo sapiens, UniProt Q99720). The data set is described as follows: Displacement of [3H]-pentazocine from sigma1 receptor (unknown origin) after 90 mins by microbeta scintillation counting method.
Data set [12] deals with Beta-2 adrenergic receptor (Homo sapiens, UniProt P07550). The experiment in a line: Displacement of [3H]-CGP12177 from recombinant human beta2 adrenergic receptor expressed in HEK Flp-In cell membranes measured after 90 mins by microbeta scintillation counting method.

As for `CCCN(CC[C@]1(O)C[C@H](NC(=O)c2ccc3ccccc3c2)C1)[C@H]1CCc2nc(N)sc2C1`, the inhibition at […], 10 µM at 5HT1D receptor is less than 50%; at dopamine D2 receptor, more than 50%; at muscarinic M4 receptor it was more than 50%; in [6], less than 50%; on dopamine D5 receptor, less than 50%; at 5HT1E receptor it was less than 50%. Further, the inhibition at […], 10 µM at Histamine H3 receptor was more than 50%; in data set [8], less than 50%; in data set [9] it was less than 50%; at Histamine H4 receptor it was less than 50%; in data set [10], more than 50%. The pKi was 6.36 in data set [1] (read-out: Ki); 6.11 in [2]; 5.55 in [3] (read-out: Ki); 6.12 in data set [4] (read-out: Ki); 5.93 in data set [5] (read-out: Ki); 5.64 in data set [7] (read-out: Ki).

For `CCCN[C@H]1CCc2nc(N)sc2C1` [PRAMIPEXOLE], the inhibition at […], 10 µM on 5HT1D receptor was more than 50%; at dopamine D2 receptor, more than 50%; on muscarinic M4 receptor it was less than 50%; in data set [6], more than 50%; on dopamine D5 receptor, more than 50%; at 5HT1E receptor it was more than 50%. Besides, the inhibition at […], 10 µM at Histamine H3 receptor was less than 50%; in data set [8] it was less than 50%; in data set [9], more than 50%; on Histamine H4 receptor, more than 50%; in data set [10], less than 50%. Besides, the Ki result in [1], in [3], in data set [4], in data set [5] and in data set [7] (cho) was “Not Active” each time. Further, the pKi in data set [2] is 5.93; in data set [11] it was 5.35; in [12], less than 5.00.
